Results from patent US20200157092A1, “[1,2,4]-TRIAZOLO [1,5-A]-PYRIMIDINYL DERIVATIVES SUBSTITUTED WITH PIPERIDINE, […] […] OGA INHIBITORS” (priority 2017, published 2020).
pEC50: −log10 of the molar value. Like-named read-outs stand apart in the source and are kept apart here.

Assays:
[1] = molecular target: T1, recombinant human Meningioma Expressed Antigen 5 (MGEA5), also referred to as O-GlcNAcase (OGA) (Homo sapiens, UniProt O60502); assay: OGA biochemical assay: inhibition of FM-GlcNAc hydrolysis, fluorescence; protocol A (10 nM OGA, 1 h) or protocol B (2 nM OGA, 6 h); conditions: for IC50: read-out: Enzymatic hOGA, pIC50 (converted)
T1 construct: Full length OGA enzyme was purchased at OriGene (cat # TP322411); purchased OriGene TP322411
T1 sequence (O60502 1-916): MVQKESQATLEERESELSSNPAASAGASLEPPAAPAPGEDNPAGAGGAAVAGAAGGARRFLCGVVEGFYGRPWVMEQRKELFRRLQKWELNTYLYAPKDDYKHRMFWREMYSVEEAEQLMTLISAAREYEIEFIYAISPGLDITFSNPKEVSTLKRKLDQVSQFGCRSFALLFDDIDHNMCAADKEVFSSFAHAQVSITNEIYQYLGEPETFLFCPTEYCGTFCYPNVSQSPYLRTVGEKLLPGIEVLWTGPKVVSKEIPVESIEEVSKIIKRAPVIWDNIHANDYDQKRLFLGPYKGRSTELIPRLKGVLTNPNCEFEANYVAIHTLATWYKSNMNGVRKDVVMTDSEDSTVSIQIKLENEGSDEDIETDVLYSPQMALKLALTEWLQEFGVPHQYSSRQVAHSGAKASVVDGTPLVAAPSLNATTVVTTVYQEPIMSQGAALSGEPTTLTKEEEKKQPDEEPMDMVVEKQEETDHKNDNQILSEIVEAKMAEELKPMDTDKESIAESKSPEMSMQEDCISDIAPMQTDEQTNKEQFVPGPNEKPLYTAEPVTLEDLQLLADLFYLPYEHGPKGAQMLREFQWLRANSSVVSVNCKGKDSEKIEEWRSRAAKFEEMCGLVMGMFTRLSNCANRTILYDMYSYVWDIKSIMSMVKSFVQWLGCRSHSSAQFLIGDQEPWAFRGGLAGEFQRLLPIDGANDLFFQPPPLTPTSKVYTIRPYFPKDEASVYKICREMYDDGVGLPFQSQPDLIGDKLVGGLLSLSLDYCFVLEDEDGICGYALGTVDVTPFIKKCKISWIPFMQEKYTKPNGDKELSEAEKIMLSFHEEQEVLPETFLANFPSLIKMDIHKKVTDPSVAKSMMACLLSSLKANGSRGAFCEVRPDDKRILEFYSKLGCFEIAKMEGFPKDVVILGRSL
Experimental: The hydrolysis FM-GlcNAc (Marker Gene technologies, cat # M1485) results in the formation of ß-D-N-glucosamineacetate and fluorescein. The fluorescence of the latter can be measured at excitation wavelength 485 nm and emission wavelength 538 nm. An increase in enzyme activity results in an increase in fluorescence signal. Full length OGA enzyme was purchased at OriGene (cat # TP322411). The enzyme was stored in 25 mM Tris.HCl, pH 7.3, 100 mM glycine, 10% glycerol at −20° C. […] The assay was performed in 200 mM Citrate/phosphate buffer supplemented with 0.005% Tween-20. 35.6 g Na2HPO4 2 H2O (Sigma, # C0759) were dissolved in 1 L water to obtain a 200 mM solution. […] The buffer to stop the reaction consists of a 500 mM Carbonate buffer, pH 11.0. […] OGA was used at a 10 nM (protocol A) or 2 nM (protocol B) concentration and FM-GlcNAc at a 100 uM final concentration. Dilutions were prepared in assay buffer.
Plates were pre-incubated for 60 min at room temperature and then 2 μl FM-GlcNAc substrate mix added. […] Plates were briefly centrifuged for 1 min at 1000 rpm and incubate at room temperature for 1 h (10 nM OGA, protocol A) or 6 h (2 nM OGA, protocol B). To stop the reaction 5 μl STOP buffer were added and plates centrifuge again 1 min at 1000 rpm. Fluorescence was quantified in the Thermo Scientific Fluoroskan Ascent or the PerkinElmer EnVision with excitation wavelength 485 nm and emission wavelength 538 nm.
For analysis a best-fit curve is fitted by a minimum sum of squares method. From this an IC50 value and Hill coefficient was obtained. High control (no inhibitor) and low control (saturating concentrations of standard inhibitor) were used to define the minimum and maximum values.

[2] = molecular target: T2, OGA (Homo sapiens, UniProt O60502); assay: OGA cellular assay: immunocytochemical detection of O-GlcNAcylated proteins in HEK293 cells inducible for P301L mutant human Tau; type: cell-based; conditions: for Emax: HEK293, read-out: Cellular Emax (%)
T2 construct: HEK293 cells inducible for P301L mutant human Tau (isoform 2N4R) were established at Janssen; endogenous in cells; host or cells: HEK293 cells inducible for P301L mutant human Tau (2N4R)
T2 sequence (O60502 1-916): T1 sequence (O60502 1-916)
From the text: HEK293 cells inducible for P301L mutant human Tau (isoform 2N4R) were established at Janssen. Thiamet-G was used for both plate validation (high control) and as reference compound (reference EC50 assay validation). […] Inhibition of OGA will result in an increase of O-GlcNAcylated protein levels resulting in an increased signal in the experiment. […] ICC pictures are imaged with a Perkin Elmer Opera Phenix plate microscope and quantified with the provided software Perkin Elmer Harmony 4.1.
Cells were propagated in DMEM high Glucose (Sigma, # D5796) following standard procedures. […] At the day of compound test medium from assay plates was removed and replenished with 90 μl of fresh Assay Medium. 10 μl of compounds at a 10 fold final concentration were added to the wells. Plates were centrifuged shortly before incubation in the cell incubator for 6 hours. DMSO concentration was set to 0.2%. Medium is discarded by applying vacuum. For staining of cells medium was removed and cells washed once with 100 μl D-PBS (Sigma, # D8537). From next step onwards unless other stated assay volume was always 50 μl and incubation was performed without agitation and at room temperature. […] Before analysis samples were washed 2 times manually for 5 minutes in ICC base buffer.
Imaging is performed using Perkin Elmer Phenix Opera using a water 20× objective and recording 9 fields per well. Intensity readout at 488 nm is used as a measure of O-GlcNAcylation level of total proteins in wells. To assess potential toxicity of compounds nuclei were counted using the Hoechst staining. IC50-values are calculated using parametric non-linear regression model fitting. As a maximum inhibition Thiamet G at a 200 uM concentration is present on each plate. In addition, a concentration response of Thiamet G is calculated on each plate.

[3] = Enzymatic protocol A (10 nM OGA, 1 h)
[4] = Enzymatic protocol B (2 nM OGA, 6 h)

Structure (SMILES) | Emax [1, 3] | IC50 [1, 3] | melting point | pEC50 [2] | Emax [2] | Emax [1, 4] | IC50 [1, 4]
CC(=O)Nc1ncc(S(=O)(=O)N2CCO[C@H](c3ccnc4ncnn34)C2)s1 [Product 32] | 102% | 14.5 nM | 260.51 °C | < 5.00 | 21.8% | – | –
CC(=O)Nc1ncc(S(=O)(=O)N2CCOC(c3cc(C(F)F)nc4ncnn34)C2)s1 (centres unmarked) [Product 33] | 101% | 6.46 nM | 264.85 °C | < 5.00 | 15.7% | – | –
CC(=O)Nc1ncc(CN2CCCC(c3cc(C(F)F)nc4ncnn34)C2)s1 (racemic) [Product 13] | 101% | 8.51 nM | 186.01 °C | 7.45 | 130% | – | –
CC(=O)Nc1ncc(CN2CCCC(c3cc(C(F)F)nc4nccn34)C2)s1 (centres unmarked) [Product 14] | 102% | 8.71 nM | 226.06 °C | 7.15 | 108% | – | –
CC(=O)Nc1ncc(CN2CC[C@H](Cc3cncc4nccn34)C2)s1 [Product 108] | – | – | 202.48 °C | 7.01 | 92.7% | 101% | 4.9 nM
CC(=O)Nc1ncc(CN2CCC(Cc3cnc4cc[nH]c4c3)C2)s1 (centres unmarked) [Product 68] | – | – | 190.79 °C | 7.38 | 91.2% | 101% | 5.37 nM
CC(=O)Nc1ncc(S(=O)(=O)N2CCCC(c3cc(C(F)F)nc4ncnn34)C2)s1 (racemic) [Product 6] | 101% | 9.33 nM | 266.14 °C | < 5.00 | 39.4% | – | –
CC(=O)Nc1ncc(CN2CCC[C@@H](c3cc(C(F)F)n4ncnc4n3)C2)s1 [Product 25] | 103% | 13.5 nM | 182.53 °C | 6.34 | 113% | – | –
CC(=O)Nc1ncc(S(=O)(=O)N2CCOC(c3cc(C)nc4ncnn34)C2)s1 (racemic) [Product 28] | 103% | 9.12 nM | 290.78 °C | < 5.00 | 22% | 101% | 8.51 nM
CC(=O)Nc1ncc(CN2CCCC(c3cc4cc[nH]c4nc3C)C2)s1 (racemic) [Product 74] | 101% | 6.31 nM | 276.23 °C | 7.87 | 102% | – | –
CC(=O)Nc1ncc(CN2CCCC(c3cc(C)nc4ncnn34)C2)s1 (racemic) [Product 11] | – | – | 246.95 °C | 7.56 | 113% | 100% | 6.17 nM
CC(=O)Nc1ncc(CN2CCCC(c3cc(C(F)F)n4ccnc4n3)C2)s1 (racemic) [Product 24] | 102% | 31.6 nM | 232.44 °C | 6.32 | 109% | – | –
CC(=O)Nc1ncc(S(=O)(=O)N2CCCC(c3cc(C(F)F)n4ccnc4n3)C2)s1 (racemic) [Product 23] | 102% | 295 nM | 280.13 °C | – | – | – | –
CC(=O)Nc1ncc(S(=O)(=O)N2CCNC(c3cc(C)nc4ncnn34)C2)s1 (centres unmarked) [Product 40] | 100% | 16.6 nM | 226.91 °C | – | – | – | –
CC(=O)Nc1ncc(CN2CCOC(c3cc(C)nc4ncnn34)C2)s1 (centres unmarked) [Product 35] | 98.3% | 1580 nM | 264.26 °C | – | – | 86.7% | 1480 nM
CC(=O)Nc1ncc(CN2CCNC(c3cc(C)nc4ncnn34)C2)s1 (centres unmarked) [Product 42] | – | – | 228.95 °C | – | – | 93.6% | 437 nM
CC(=O)Nc1ncc(CN2CC[C@H](Cc3nccn4c(C)cnc34)C2)s1 [Product 104] | – | – | 189.54 °C | 7.21 | 91.5% | 100% | 1.48 nM
CC(=O)Nc1ncc(S(=O)(=O)N2CCO[C@@H](c3ccnc4ncnn34)C2)s1 [Product 31] | 103% | 15.8 nM | 263.16 °C | < 5.00 | 11.1% | – | –
CC(=O)Nc1ncc(S(=O)(=O)N2CCNC(c3cc(C(F)F)n4ncnc4n3)C2)s1 (centres unmarked) [Product 43] | 93.1% | 1860 nM | 226.22 °C | – | – | – | –
CC(=O)Nc1ncc(S(=O)(=O)N2CCOC(c3cc(C(F)F)n4ncnc4n3)C2)s1 (centres unmarked) [Product 38] | 101% | 468 nM | 229.94 °C | – | – | – | –
CC(=O)Nc1ncc(S(=O)(=O)N2CCOC(c3cc(C(F)(F)F)nc4ncnn34)C2)s1 (centres unmarked) [Product 27] | 100% | 17 nM | 255.12 °C | < 5.00 | 19.5% | – | –
CC(=O)Nc1ncc(CN2CCC[C@H](c3ccnc4ncnn34)C2)s1 [Product 9] | 101% | 11.7 nM | 234.6 °C | 7.41 | 109% | – | –
CC(=O)Nc1ncc(S(=O)(=O)N2CCC[C@@H](c3cc(C(F)F)n4ncnc4n3)C2)s1 [Product 22] | 99.1% | 617 nM | 263.43 °C | – | – | – | –
CC(=O)Nc1ncc(CN2CCC[C@@H](c3ccnc4ncnn34)C2)s1 [Product 65] | – | – | 236.16 °C | – | – | 99.2% | 123 nM
CC(=O)Nc1ncc(S(=O)(=O)N2CCNC(c3cc(C(F)F)nc4ncnn34)C2)s1 (centres unmarked) [Product 41] | 102% | 6.17 nM | 227.97 °C | < 5.00 | 10.5% | – | –
